Values of other authors as cited in patent US12201667B2, “Formulations for treating cramps and spasms” (LYTONE ENTERPRISE, INC., priority 2020, dated 2025).

Details: background statement

Question: Which “reduction of cramp frequency” value does the source give for `C=C[C@H]1C[N@@]2CC[C@H]1C[C@H]2[C@H](O)c1ccnc2ccc(OC)cc12` [quinine, Quinine] here?
Answer: Its value is “about a quarter”.
